Data from the NIST ThermoML archive (doi:10.1016/j.jct.2012.09.012).
Numbers after ± are expanded uncertainties.

Columns and labels:
[1] = molar heat capacity at constant pressure; conditions: 101 kPa, Liquid, Small sample (50 mg) DSC
[2] = Liquid, Vibrating tube method
[3] = xn = mol fraction of the nth substance listed; conditions: Liquid, Vibrating tube method, x2 = 0
[4] = molar heat capacity at constant pressure; xn = mol fraction of the nth substance listed; conditions: 101 kPa, Liquid, Small sample (50 mg) DSC, x2 = 0

CC1=CC[C@H]2C[C@@H]1C2(C)C [(S)-2-pinene]
[1]
Conditions	molar heat capacity at constant pressure [J/K/mol]
313.16 K	250.67 ± 8.2
318.16 K	252.03 ± 8.2
323.16 K	256.12 ± 8.2
328.22 K	257.48 ± 8.2
333.22 K	260.21 ± 8.2
338.19 K	264.29 ± 8.2
343.18 K	267.02 ± 9.5
348.15 K	269.74 ± 9.5
353.18 K	272.47 ± 9.5
358.15 K	275.19 ± 9.5
363.18 K	277.92 ± 9.5
368.17 K	279.28 ± 9.5
373.21 K	282 ± 9.5
378.2 K	284.73 ± 9.5
383.17 K	287.45 ± 9.5
388.2 K	291.54 ± 9.5
393.17 K	292.9 ± 9.5
398.2 K	294.27 ± 9.5
403.19 K	296.99 ± 9.5
408.16 K	299.71 ± 9.5
413.19 K	301.08 ± 9.5
418.19 K	303.8 ± 9.5

mass density [kg/m3], [2]
Conditions	283.15 K	298.15 K	313.15 K	328.15 K	343.15 K	358.15 K
20000 kPa	880 ± 1.2	868.8 ± 1.2	858 ± 1.2	846.7 ± 1.2	835.9 ± 1.2	825 ± 1.2
25000 kPa	883.2 ± 1.2	872.1 ± 1.2	861.3 ± 1.2	850.4 ± 1.2	839.7 ± 1.2	829.2 ± 1.2
30000 kPa	886.3 ± 1.3	875.3 ± 1.3	864.7 ± 1.3	854 ± 1.3	843.8 ± 1.3	833.3 ± 1.3
35000 kPa	889.4 ± 1.3	878.6 ± 1.3	867.9 ± 1.3	857.5 ± 1.3	847.7 ± 1.3	837.4 ± 1.3
40000 kPa	892.5 ± 1.3	881.9 ± 1.3	871.3 ± 1.3	861.1 ± 1.3	851.4 ± 1.3	841.5 ± 1.3

C=C1CCC2CC1C2(C)C (stereo not drawn) [β-pinene]
[1]
Conditions	molar heat capacity at constant pressure [J/K/mol]
313.16 K	249.31 ± 8.2
318.16 K	252.03 ± 8.2
323.16 K	254.76 ± 8.2
328.22 K	257.48 ± 8.2
333.22 K	260.21 ± 8.2
338.19 K	262.93 ± 8.2
343.18 K	265.66 ± 8.2
348.15 K	268.38 ± 9.5
353.18 K	271.11 ± 9.5
358.15 K	273.83 ± 9.5
363.18 K	277.92 ± 9.5
368.17 K	280.64 ± 9.5
373.21 K	283.37 ± 9.5
378.2 K	284.73 ± 9.5
383.17 K	287.45 ± 9.5
388.2 K	290.18 ± 9.5
393.17 K	292.9 ± 9.5
398.2 K	295.63 ± 9.5
403.19 K	299.71 ± 9.5
408.16 K	302.44 ± 9.5
413.19 K	303.8 ± 9.5
418.19 K	306.53 ± 9.5

mass density [kg/m3], [2]
Conditions	283.15 K	298.15 K	313.15 K	328.15 K	343.15 K	358.15 K
20000 kPa	891.3 ± 1	880.2 ± 1	869.3 ± 1	858.2 ± 1	847.7 ± 1.1	837 ± 1.1
25000 kPa	894.2 ± 1	883.3 ± 1	872.6 ± 1.1	861.7 ± 1.1	851.4 ± 1.1	840.9 ± 1.1
30000 kPa	897 ± 1.1	886.3 ± 1.1	875.7 ± 1.1	865.2 ± 1.1	855 ± 1.1	844.8 ± 1.1
35000 kPa	899.9 ± 1.1	889.3 ± 1.1	878.8 ± 1.1	868.7 ± 1.1	858.6 ± 1.1	848.7 ± 1.1
40000 kPa	902.6 ± 1.1	892.2 ± 1.1	882 ± 1.1	872.2 ± 1.1	862.1 ± 1.1	852.6 ± 1.1

C=C1CCC2CC1C2(C)C (stereo not drawn) [β-pinene] + CC1=CC[C@H]2C[C@@H]1C2(C)C
mass density [kg/m3], [3]
Conditions	283.15 K	298.15 K	313.15 K	328.15 K	343.15 K	358.15 K
20000 kPa	891.3 ± 1	880.2 ± 1	869.3 ± 1	858.2 ± 1	847.7 ± 1.1	837 ± 1.1
25000 kPa	894.2 ± 1	883.3 ± 1	872.6 ± 1.1	861.7 ± 1.1	851.4 ± 1.1	840.9 ± 1.1
30000 kPa	897 ± 1.1	886.3 ± 1.1	875.7 ± 1.1	865.2 ± 1.1	855 ± 1.1	844.8 ± 1.1
35000 kPa	899.9 ± 1.1	889.3 ± 1.1	878.8 ± 1.1	868.7 ± 1.1	858.6 ± 1.1	848.7 ± 1.1
40000 kPa	902.6 ± 1.1	892.2 ± 1.1	882 ± 1.1	872.2 ± 1.1	862.1 ± 1.1	852.6 ± 1.1

[4]
Conditions	molar heat capacity at constant pressure [J/K/mol]
313.16 K	249.31 ± 8.2
318.16 K	252.03 ± 8.2
323.16 K	254.76 ± 8.2
328.22 K	257.48 ± 8.2
333.22 K	260.21 ± 8.2
338.19 K	262.93 ± 8.2
343.18 K	265.66 ± 8.2
348.15 K	268.38 ± 9.5
353.18 K	271.11 ± 9.5
358.15 K	273.83 ± 9.5
363.18 K	277.92 ± 9.5
368.17 K	280.64 ± 9.5
373.21 K	283.37 ± 9.5
378.2 K	284.73 ± 9.5
383.17 K	287.45 ± 9.5
388.2 K	290.18 ± 9.5
393.17 K	292.9 ± 9.5
398.2 K	295.63 ± 9.5
403.19 K	299.71 ± 9.5
408.16 K	302.44 ± 9.5
413.19 K	303.8 ± 9.5
418.19 K	306.53 ± 9.5
